Literature values as cited in EP0668291A2, “Mammalian augmenter of liver regenerating and variants thereof” (Toyo Boseki Kabushiki Kaisha, priority 1994, dated 1995).

Tested on: hepatocytes
Conditions: earlier work

For `N[C@@H](Cc1cc(I)c(Oc2ccc(O)c(I)c2)c(I)c1)C(=O)O` [thyroxin T3, tri-iodothyronine], the hepatotrophic effect is listed as “weakly hepatotrophic”.
